PubChem BioAssay AID328 (DTP/NCI, 2004)
Several values for one entry are separate records, joined by “and”; a condition that tells them apart may be missing. Equal values may be shown once. Inconclusive results and toxic doses are left out.

Test system: BDF1 mice, P388 leukemia ip, median survival T/C
Experiment: NCI In Vivo Anticancer Drug Screen. Data for tumor model P388 Leukemia (intraperitoneal) in B6D2F1 (BDF1) mice
Conditions: endpoint: median survival time, higher = longer survival
Summary of the method: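 In tumour-bearing mice, survival after compound treatment is set against the vehicle group and given as a quotient.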

[1] = dose: 25.0 mg/kg/injection, schedule: Q04DX003 (ip), vehicle: Klucel (hydroxypropylcellulose) (HPC)
[2] = dose: 50.0 mg/kg/injection, schedule: Q04DX003 (ip), vehicle: Klucel (hydroxypropylcellulose) (HPC)
[3] = dose: 100.0 mg/kg/injection, schedule: Q04DX003 (ip), vehicle: Klucel (hydroxypropylcellulose) (HPC)
[4] = dose: 200.0 mg/kg/injection, schedule: Q04DX003 (ip), vehicle: Klucel (hydroxypropylcellulose) (HPC)
[5] = dose: 400.0 mg/kg/injection, schedule: Q04DX003 (ip), vehicle: Klucel (hydroxypropylcellulose) (HPC)
[6] = dose: 200.0 mg/kg/injection, schedule: Q01DX009 (ip), vehicle: saline with Tween-80
[7] = dose: 50.0 mg/kg/injection, schedule: Q01DX009 (ip), vehicle: saline with Tween-80
[8] = dose: 100.0 mg/kg/injection, schedule: Q01DX009 (ip), vehicle: saline with Tween-80

Question: How did the T/C (dose: 25.0 mg/kg/injection, schedule: Q01DX009 (ip), vehicle: Klucel (hydroxypropylcellulose) (HPC)) turn out when `COC(=O)c1ccc(C(=O)O)[n+]([O-])c1` was run?
Answer: 96 % of control

Question: What about the T/C [1] of the same molecule?
Answer: 100 % of control

Question: What about the T/C [2] of the same molecule?
Answer: 104 % of control

Question: What about the T/C (dose: 100.0 mg/kg/injection, schedule: Q01DX009 (ip), vehicle: Klucel (hydroxypropylcellulose) (HPC)) of the same molecule?
Answer: 88 % of control

Question: And the T/C [3]?
Answer: 113 % of control

Question: And the T/C (dose: 200.0 mg/kg/injection, schedule: Q01DX009 (ip), vehicle: Klucel (hydroxypropylcellulose) (HPC))?
Answer: 89 % of control

Question: And the T/C [4]?
Answer: 95 % of control

Question: And the T/C [5]?
Answer: 87 % of control

Question: `O=C(NCCBr)Nc1ccccc1C(F)(F)F` was tested. Which T/C [3] did it give?
Answer: 95 % of control

Question: What about the T/C [4] of the same molecule?
Answer: 109 % of control

Question: What about the T/C [5] of the same molecule?
Answer: 109 % of control

Question: With `CC1(C)COCN1COC1CCCCC1` as the molecule, how does the T/C [6] read?
Answer: 90 % of control

Question: Which results are given for `O=C(Nc1ccc(C2=NCCCN2)cc1)c1ccc(C(=O)Nc2ccc(C3=NCCCN3)cc2)cc1`?
Answer: T/C (dose: 7.2 mg/kg/injection, schedule: Q04DX003 (ip), vehicle: Klucel (hydroxypropylcellulose) (HPC)): 177 % of control; T/C (dose: 8.7 mg/kg/injection, schedule: Q04DX003 (ip), vehicle: saline with Tween-80): 152 % of control; T/C (dose: 10.8 mg/kg/injection, schedule: Q04DX003 (ip), vehicle: other): 194 % of control; T/C (dose: 12.0 mg/kg/injection, schedule: Q04DX003 (ip), vehicle: Klucel (hydroxypropylcellulose) (HPC)): 194 % of control; T/C (dose: 13.2 mg/kg/injection, schedule: Q04DX003 (ip), vehicle: saline with Tween-80): 168 % of control and 172 % of control; T/C (dose: 18.0 mg/kg/injection, schedule: Q04DX003 (ip), vehicle: other): 203 % of control; T/C (dose: 20.0 mg/kg/injection, schedule: Q04DX003 (ip), vehicle: Klucel (hydroxypropylcellulose) (HPC)): 250 % of control; T/C (dose: 20.0 mg/kg/injection, schedule: Q04DX003 (ip), vehicle: saline with Tween-80): 250 % of control and 195 % of control; T/C (dose: 30.0 mg/kg/injection, schedule: Q04DX003 (ip), vehicle: other): 97 % of control; T/C (dose: 30.0 mg/kg/injection, schedule: Q04DX003 (ip), vehicle: saline with Tween-80): 268 % of control and 272 % of control; T/C (dose: 33.3 mg/kg/injection, schedule: Q04DX003 (ip), vehicle: Klucel (hydroxypropylcellulose) (HPC)): 250 % of control

Question: How did the T/C [3] turn out when `CN(C)c1cc(Br)c(C=O)cc1[N+](=O)[O-]` was run?
Answer: 95 % of control

Question: And the T/C [4]?
Answer: 95 % of control

Question: And the T/C [5]?
Answer: 100 % of control

Question: What does the source list for `Cc1ccc(-c2nc3ccccc3c(=O)n2/N=C/c2cccc3ccccc23)cc1`?
Answer: T/C [7]: 90 % of control; T/C [8]: 89 % of control

Question: Which results are given for `NC1=Nc2cccc3cccc(c23)N1`?
Answer: T/C (dose: 12.5 mg/kg/injection, schedule: Q01DX009 (ip), vehicle: saline with Tween-80): 92 % of control; T/C (dose: 12.5 mg/kg/injection, schedule: Q04DX003 (ip), vehicle: Klucel (hydroxypropylcellulose) (HPC)): 109 % of control; T/C (dose: 25.0 mg/kg/injection, schedule: Q01DX009 (ip), vehicle: saline with Tween-80): 100 % of control; T/C [1]: 100 % of control; T/C [7]: 100 % of control; T/C [2]: 109 % of control

Question: What does the source list for `Clc1ccccc1N1CN(c2ccccc2Cl)CN(c2ccccc2Cl)C1`?
Answer: T/C [7]: 104 % of control; T/C [8]: 100 % of control; T/C [6]: 100 % of control

Question: Which results are given for `CCOC(=O)/C(=N\O)C1=CSC2=NNC(C)(C)N12`?
Answer: T/C [7]: 95 % of control; T/C [6]: 92 % of control

Question: How did the T/C (dose: 6.25 mg/kg/injection, schedule: Q01DX009 (ip), vehicle: saline) turn out when `NCCNCC[OH2+].NCCNCC[OH2+].O=S(=O)([O-])[O-].[Cu+2]` was run?
Answer: 105 % of control

Question: What about the T/C (dose: 12.5 mg/kg/injection, schedule: Q01DX009 (ip), vehicle: saline) of the same molecule?
Answer: 108 % of control

Question: And the T/C (dose: 25.0 mg/kg/injection, schedule: Q01DX009 (ip), vehicle: saline)?
Answer: 103 % of control

Question: What does the source list for `Cc1c2cc3c(c1O)C(=O)CC(O3)c1ccc(O)c(c1)-c1ccc(O)c(c1)C(=O)OCC1OC(O2)C(O)C(O)C1O` (stereo unspecified)?
Answer: T/C (dose: 0.13 mg/kg/injection, schedule: Q01DX009 (ip), vehicle: Klucel (hydroxypropylcellulose) (HPC)): 109 % of control; T/C (dose: 0.25 mg/kg/injection, schedule: Q01DX009 (ip), vehicle: Klucel (hydroxypropylcellulose) (HPC)): 106 % of control; T/C (dose: 0.5 mg/kg/injection, schedule: Q01DX009 (ip), vehicle: Klucel (hydroxypropylcellulose) (HPC)): 112 % of control; T/C (dose: 1.0 mg/kg/injection, schedule: Q01DX009 (ip), vehicle: Klucel (hydroxypropylcellulose) (HPC)): 112 % of control
